How the values were obtained:
free hemoglobin (Hb) = biological target: T1, free hemoglobin (Hb) (Homo sapiens, UniProt P68871); experiment: P50 (oxygen equilibrium curve, Hemox Analyzer) on free hemoglobin; format: biochemical; settings: blood matrix Hb, free hemoglobin 100 μM, pH 7.4, 37° C.; for P50: effector 2 mM (effector/Hb ratio 20), n=3; for P50 increase: versus P50 control, effector 2 mM
T1 construct: the cells were hemolysed by addition of 2 volumes of cold distilled water; tissue EFS-Alsace; host or cells: red blood cell concentrate, hemolysed, stroma removed, passed over Sephadex G-25
T1 sequence (P68871 2-147 limits assumed): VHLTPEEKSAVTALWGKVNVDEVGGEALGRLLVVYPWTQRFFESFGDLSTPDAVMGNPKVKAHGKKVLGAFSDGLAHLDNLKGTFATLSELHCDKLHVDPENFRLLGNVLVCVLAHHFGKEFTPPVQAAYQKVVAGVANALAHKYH
T1 sequence (P69905 2-142 partner limits assumed): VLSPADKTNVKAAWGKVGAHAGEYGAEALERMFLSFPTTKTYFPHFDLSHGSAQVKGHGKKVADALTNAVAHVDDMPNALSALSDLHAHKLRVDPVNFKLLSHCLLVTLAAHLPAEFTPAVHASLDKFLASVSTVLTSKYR
Method: (§1) Some of the compounds described herein were tested for P50 on free hemoglobin (Hb) as well as human whole blood (WB) as 120 mM solutions. The hemoglobin solution was prepared from red blood cells concentrate (EFS-Alsace) by washing three times with 1 volume of saline (1500×g, 10 min), the cells were hemolysed by addition of 2 volumes of cold distilled water. After centrifugation (7000×g, 30 min) for stroma removal, 5 ml of the clear hemoglobin solution were placed on a 2.5 cm×30 cm column of Sephadex G-25 equilibrated with 0.1 M sodium chloride+10^−5 M EDTA. The protein was eluted with the same solution at a rate of about 20 ml/h [Benesch, R.; Benesch, R. E. and Yu, C. I. Reciprocal binding of oxygen and diphosphoglycerate by human hemoglobin. Proc. Natl. Acad. Sci. USA (1968) 59, 526-532].
The allosteric modulation of the effectors was measured by the change in p50, the partial pressure of oxygen for half-saturation. myo-Inositol hexaphosphate (myo-1HP) was purchased from Sigma. Oxygen equilibrium curves (OEC) were carried out with the Hemox Analyzer (TCS Scientific Co.) under the following conditions: pH 7.4, 135 mM NaCl, 5 mM KCl and 30 mM TES (N-[tris(hydroxymethyl)methyl]-2-aminoethanesulfonic acid) buffer at 37° C. The concentration of free hemoglobin was 100 μM (577 nm, ε=58.4 mM^−1 cm^−1 per tetramer) and the final concentration of the allosteric effector in the cuvette was 2 mM resulting in an effector/Hb ratio of 20.

human whole blood (WB) = experiment: P50 (oxygen dissociation curve, Hemox Analyzer) on human whole blood; format: cell-based; settings: blood matrix WB, 120 mM compound solution, 1:1 with whole blood; for P50: incubated two hours at 37° C., n=3; for P50 increase: versus P50 control, two hours at 37° C.
Method: as §1
Human blood was freshly withdrawn in heparinized tubes. The pH of the compound solutions was adjusted to approximately 7.0 and whole blood volumes at 1:1 ratios where incubated individually for two hours at 37° C. with the above compounds. Following, incubation, blood cells were washed 3 times with Bis-Tris-buffer. The measurement of oxygen dissociation curves was made in a Hemox-Analyzer instrument (TCS Scientific Corp.) A summary of P50 values for whole blood induced by the compounds is presented in Table 1.

Molecule	P50 (free hemoglobin (Hb)) [Torr]	P50 increase (free hemoglobin (Hb)) [%]	P50 (human whole blood (WB)) [Torr]	P50 increase (human whole blood (WB)) [%]
O=P(O)(O)O[C@H]1[C@H](OP(=O)(O)O)[C@@H](OP(=O)(O)O)[C@H](OP(=O)(O)O)[C@@H](OP(=O)(O)O)[C@H]1OP(=O)(O)O [myo-IHP, myo-Inositol hexaphosphate, reference compound]	48.37 ± 3.71	282		
Hexasodium scyllo-inositol 1,2:3,4:5,6-trispyrophosphate [scyllo-ITPP (Compound 4, Scheme 5)]	23.02 ± 1.83	127	34.10 ± 1.81	18
O[C@H]1[C@H](O)[C@@H](O)[C@H](O)[C@@H](O)[C@H]1O [myo-Inositol (Compound 7, Scheme 6)]	27.43 ± 1.07	158		
O[C@H]1[C@H](O)[C@@H](O)[C@H](O)[C@@H](O)[C@H]1O [myo-Inositol (Compound 5, Scheme 6)]	27.25 ± 0.14	148	35.53 ± 1.43	23

— patent publication US20130190524A1, “CYCLITOLS AND THEIR DERIVATIVES AND THEIR THERAPEUTIC APPLICATIONS” (UNIVERSITE DE STRASBOURG, priority 2006, published 2013)
